Assay results from US9096640B2, “17-hydroxy-17-pentafluoroethyl-estra-4,9(10)-diene-11-methylene oxyalkylene aryl derivatives, process for preparation thereof, and use thereof for treatment of diseases” (Bayer Intellectual Property, priority 2009, dated 2015).

Legend:
[1] = target: T1, human progesterone receptor B (Homo sapiens, UniProt P06401); assay: Progesterone receptor transactivation test in stably transfected SK-N-MC cells (PR-B, MMTV-LUC reporter); assay type: cell-based; details: 24 hours, in presence of 0.1 nmol/l promegestone, luciferase reporter, read-out: PR-B IC50 (antagonistic potency)
T1 construct: expressed in transfected cells; host or cells: SK-N-MC human neuroblastoma cells, stably transfected with pRChPR-B-neo and pMMTV-LUC
T1 sequence (P06401 1-933): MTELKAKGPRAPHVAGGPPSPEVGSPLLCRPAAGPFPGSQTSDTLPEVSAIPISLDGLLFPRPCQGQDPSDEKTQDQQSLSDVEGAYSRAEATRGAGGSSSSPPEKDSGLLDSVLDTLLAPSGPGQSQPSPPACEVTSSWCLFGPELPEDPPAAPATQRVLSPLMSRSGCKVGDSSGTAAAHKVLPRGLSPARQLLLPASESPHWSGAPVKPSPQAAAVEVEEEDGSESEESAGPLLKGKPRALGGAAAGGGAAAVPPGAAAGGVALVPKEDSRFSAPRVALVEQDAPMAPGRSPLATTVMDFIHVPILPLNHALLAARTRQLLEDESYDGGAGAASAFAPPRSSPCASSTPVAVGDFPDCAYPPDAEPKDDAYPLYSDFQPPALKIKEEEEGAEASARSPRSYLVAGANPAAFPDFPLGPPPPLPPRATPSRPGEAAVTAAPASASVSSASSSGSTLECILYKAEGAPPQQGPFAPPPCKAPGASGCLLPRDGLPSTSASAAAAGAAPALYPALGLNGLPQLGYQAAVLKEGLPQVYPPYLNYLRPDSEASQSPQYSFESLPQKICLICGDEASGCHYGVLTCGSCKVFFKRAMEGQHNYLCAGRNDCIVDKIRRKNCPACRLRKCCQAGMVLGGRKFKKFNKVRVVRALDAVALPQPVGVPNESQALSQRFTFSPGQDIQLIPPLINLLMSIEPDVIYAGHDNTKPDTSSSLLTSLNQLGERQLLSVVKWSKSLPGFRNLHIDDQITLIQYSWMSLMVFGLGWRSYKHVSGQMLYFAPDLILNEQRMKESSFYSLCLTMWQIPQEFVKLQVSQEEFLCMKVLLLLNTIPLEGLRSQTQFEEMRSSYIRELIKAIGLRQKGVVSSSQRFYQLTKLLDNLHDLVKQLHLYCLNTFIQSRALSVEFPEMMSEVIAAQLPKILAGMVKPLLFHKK
Method: (§1) Progesterone Receptor-Antagonistic Action in Stable Transfectants of Human Neuroblastoma Cells (SK-N-MC Cells) with the Human Progesterone A or Progesterone B Receptor and an MN-LUC Reporter Construct
(§2) SK-N-MC cells (human neuroblastoma cells) which have been stably transfected with plasmids expressing the human progesterone receptor B (pRChPR-B-neo) or the human progesterone receptor A (pRChPR-A-neo) and a reporter construct (pMMTV-LUC) were incubated for 24 hours either in the absence (negative control) or in the presence of ascending amounts of the particular test compound (0.01 nmol/l, 0.1 nmol/l, 1 nmol/l, 10 nmol/l, 100 nmol/l and […]), in order to determine the agonistic efficacy. As a positive control of the reporter gene induction, the cells were treated with the synthetic gestagen promegestone (0.01 nmol/l, 0.1 nmol/l, 1 nmol/l, 10 nmol/l, 100 nmol/l and […]). To determine the antagonistic activity, the cells were treated with 0.1 nmol/l promegestone and additionally with ascending amounts of the particular test compound (0.01 nmol/l, 0.1 nmol/l, 1 nmol/l, 10 nmol/l, 100 nmol/l and […]). The activity of the reporter gene LUC (LUC=luciferase) was determined in the cell lysates and measured as RLU (relative light units). All measurements are reported as % efficacy and as […] and […] concentrations.

[2] = target: T2, human progesterone receptor A (Homo sapiens, UniProt P06401); assay: Progesterone receptor transactivation test in stably transfected SK-N-MC cells (PR-A, MMTV-LUC reporter); assay type: cell-based; details: 24 hours, in presence of 0.1 nmol/l promegestone, luciferase reporter, read-out: PR-A IC50 (antagonistic potency)
T2 construct: expressed in transfected cells; host or cells: SK-N-MC human neuroblastoma cells, stably transfected with pRChPR-A-neo and pMMTV-LUC
T2 sequence (P06401 1-769 isoform P06401-2): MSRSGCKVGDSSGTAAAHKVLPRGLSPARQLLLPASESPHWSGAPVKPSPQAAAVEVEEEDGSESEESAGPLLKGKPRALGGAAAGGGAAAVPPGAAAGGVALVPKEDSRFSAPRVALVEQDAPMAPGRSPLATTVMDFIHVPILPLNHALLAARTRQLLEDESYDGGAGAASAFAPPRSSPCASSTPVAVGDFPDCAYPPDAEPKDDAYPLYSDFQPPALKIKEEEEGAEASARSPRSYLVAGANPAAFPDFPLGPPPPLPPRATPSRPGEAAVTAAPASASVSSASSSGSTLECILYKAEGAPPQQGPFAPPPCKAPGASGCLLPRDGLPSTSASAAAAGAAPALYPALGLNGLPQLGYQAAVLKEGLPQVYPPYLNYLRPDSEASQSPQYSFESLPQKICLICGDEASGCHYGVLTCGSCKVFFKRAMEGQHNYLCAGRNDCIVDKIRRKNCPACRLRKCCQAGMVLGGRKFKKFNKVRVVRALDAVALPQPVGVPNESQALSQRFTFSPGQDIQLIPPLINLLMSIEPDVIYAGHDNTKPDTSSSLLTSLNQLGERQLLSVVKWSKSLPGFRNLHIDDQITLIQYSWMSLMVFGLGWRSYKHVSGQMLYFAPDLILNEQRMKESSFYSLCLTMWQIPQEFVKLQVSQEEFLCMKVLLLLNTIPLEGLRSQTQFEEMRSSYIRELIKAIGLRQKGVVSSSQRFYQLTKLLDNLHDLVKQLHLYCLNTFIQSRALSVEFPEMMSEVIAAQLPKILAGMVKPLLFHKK
Method: as §1, §2

SMILES | IC50 [1] [nM] | IC50 [2] [nM]
C[C@]12C[C@H](c3ccc(CCOCC(=O)O)cc3)C3=C4CCC(=O)C=C4CC[C@H]3[C@@H]1CC[C@@]2(O)C(F)(F)C(F)(F)F [Example 6, {2-[4-((8S,11R,13S,14S,17S)-17-hydroxy-13-methyl-3-oxo-17-pentafluoroethyl-2,3,6,7,8,11,12,13,14,15,16,17-dodecahydro-1H-cyclopenta[a]phenanthren-11-yl)-phenyl]ethoxy}acetic acid] | 12 | 3
COC(C)c1ccc(C2C[C@@]3(C)C(CC[C@@]3(O)C(F)(F)C(F)(F)F)C3CCC4=CC(=O)CCC4=C23)cc1 (mixture of isomers) [Example 1B, (8S,11R,13S,14S,17S)-17-hydroxy-11-[4-((1RS)-1-methoxyethyl)phenyl]-13-methyl-17-pentafluoroethyl-1,2,6,7,8,11,12,13,14,15,16,17-dodecahydrocyclopenta[a]phenanthren-3-one] | 0.1 | 0.1
CC(OCCO)c1ccc(C2C[C@@]3(C)C(CC[C@@]3(O)C(F)(F)C(F)(F)F)C3CCC4=CC(=O)CCC4=C23)cc1 (mixture of isomers) [Example 1A, (8S,11R,13S,14S,17S)-17-hydroxy-11-{4-[(1RS)-1-(2-hydroxyethoxy)ethyl]phenyl}-13-methyl-17-pentafluoroethyl-1,2,6,7,8,11,12,13,14,15,16,17-dodecahydro-cyclopenta[a]phenanthren-3-one] | 0.36 | 0.12
CC(OCC(=O)O)c1ccc([C@H]2C[C@@]3(C)C(CC[C@@]3(O)C(F)(F)C(F)(F)F)C3CCC4=CC(=O)CCC4=C32)cc1 (mixture of isomers) [Example 3, {(RS)-1-[4-((8S,11R,13S,14S,17S)-17-hydroxy-13-methyl-3-oxo-17-pentafluoroethyl-2,3,6,7,8,11,12,13,14,15,16,17-dodecahydro-1H-cyclopenta[a]phenanthren-11-yl)phenyl]ethoxy}acetic acid] | 9.8 | 13

Next, values leading:

IC50 [1] [nM] | IC50 [2] [nM] | SMILES
0.12 | 0.1 | CC(OCC(=O)OC(C)(C)C)c1ccc([C@H]2C[C@@]3(C)C(CC[C@@]3(O)C(F)(F)C(F)(F)F)C3CCC4=CC(=O)CCC4=C32)cc1 (mixture of isomers) [Example 2, {(1RS)-1-[4-((8S,11R,13S,14S,17S)-17-hydroxy-13-methyl-3-oxo-17-pentafluoroethyl-2,3,6,7,8,11,12,13,14,15,16,17-dodecahydro-1H-cyclopenta[a]phenanthren-11-yl)phenyl]ethoxy}acetic acid tert-butyl ester]
0.1 | 0.06 | Cc1nc2cc(COC(C)c3ccc(C4C[C@@]5(C)C(CC[C@@]5(O)C(F)(F)C(F)(F)F)C5CCC6=CC(=O)CCC6=C45)cc3)ccc2s1 (mixture of isomers) [Example 8, (8S,11R,13S,14S,17S)-17-hydroxy-13-methyl-11-{4-[(RS)-1-(2-methylbenzothiazol-5-ylmethoxy)ethyl]phenyl}-17-pentafluoroethyl-1,2,6,7,8,11,12,13,14,15,16,17-dodecahydro-cyclopenta[a]phenanthren-3-one]
0.1 | 0.1 | CC(OCC#N)c1ccc([C@H]2C[C@@]3(C)C(CC[C@@]3(O)C(F)(F)C(F)(F)F)C3CCC4=CC(=O)CCC4=C32)cc1 (mixture of isomers) [Example 5, {(RS)-1-[4-((8S,11R,13S,14S,17S)-17-hydroxy-13-methyl-3-oxo-17-pentafluoroethyl-2,3,6,7,8,11,12,13,14,15,16,17-dodecahydro-1H-cyclopenta[a]phenanthren-11-yl)phenyl]ethoxy}acetonitrile]
0.1 | 0.1 | CC(C)(C)OC(=O)COCCc1ccc([C@H]2C[C@@]3(C)[C@@H](CC[C@@]3(O)C(F)(F)C(F)(F)F)[C@@H]3CCC4=CC(=O)CCC4=C32)cc1 [Example 4, {2-[4-((8S,11R,13S,14S,17S)-17-hydroxy-13-methyl-3-oxo-17-pentafluoroethyl-2,3,6,7,8,11,12,13,14,15,16,17-dodecahydro-1H-cyclopenta[a]phenanthren-11-yl)-phenyl]ethoxy}acetic acid tert-butyl ester]
0.1 | 0.1 | C[C@]12C[C@H](c3ccc(CCOCCO)cc3)C3=C4CCC(=O)C=C4CC[C@H]3[C@@H]1CC[C@@]2(O)C(F)(F)C(F)(F)F [Example 7, (8S,11R,13S,14S,17S)-17-hydroxy-11-{4-[2-(2-hydroxyethoxy)ethyl]phenyl}-13-methyl-17-pentafluoroethyl-1,2,6,7,8,11,12,13,14,15,16,17-dodecahydro-cyclopenta[a]phenanthren-3-one]
